Measured values reported in PubChem BioAssay AID2060488 (Molecular Pharmacology Branch, DTP, NCI, 2025).

Test system: 966289-007-R4-J1-PDC complex spheroid viability
Experiment: Anticancer human tumor 966289-007-R4-J1-PDC patient-derived pancreatic adenocarcinoma cell line growth inhibition [GQUAD]
Details: for IC50: curve of first compound; for viability, T/C: stronger effect = lower value
Outline: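 Multi-cell-type spheroids of tumor cells with HUVEC and mesenchymal stem cells, treated with drug combinations. Concentrations descend in half-log steps from near clinical Cmax, or from 10 microM where Cmax is unknown; viability read-out.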

[1] = second compound 0.0316 µM, first compound 0.0316 µM
[2] = second compound 0.0316 µM, first compound 0.1 µM
[3] = second compound 0.0316 µM, first compound 0.316 µM
[4] = second compound 0.0316 µM, first compound 1 µM
[5] = second compound 0.0316 µM, first compound 3.16 µM
[6] = second compound 0.0316 µM, first compound 10 µM
[7] = second compound 0.1 µM, first compound 0.0316 µM
[8] = second compound 0.1 µM, first compound 0.1 µM
[9] = second compound 0.1 µM, first compound 0.316 µM
[10] = second compound 0.1 µM, first compound 1 µM
[11] = second compound 0.1 µM, first compound 3.16 µM
[12] = second compound 0.1 µM, first compound 10 µM
[13] = second compound 0.316 µM, first compound 0.0316 µM
[14] = second compound 0.316 µM, first compound 0.1 µM
[15] = second compound 0.316 µM, first compound 0.316 µM
[16] = second compound 0.316 µM, first compound 1 µM
[17] = second compound 0.316 µM, first compound 3.16 µM
[18] = second compound 0.316 µM, first compound 10 µM
[19] = second compound 1 µM, first compound 0.0316 µM
[20] = second compound 1 µM, first compound 0.1 µM
[21] = second compound 1 µM, first compound 0.316 µM
[22] = second compound 1 µM, first compound 1 µM
[23] = second compound 1 µM, first compound 3.16 µM
[24] = second compound 1 µM, first compound 10 µM
[25] = second compound 3.16 µM, first compound 0.0316 µM
[26] = second compound 3.16 µM, first compound 0.1 µM
[27] = second compound 3.16 µM, first compound 0.316 µM
[28] = second compound 3.16 µM, first compound 1 µM
[29] = second compound 3.16 µM, first compound 3.16 µM
[30] = second compound 3.16 µM, first compound 10 µM
[31] = second compound 10 µM, first compound 0.0316 µM
[32] = second compound 10 µM, first compound 0.1 µM
[33] = second compound 10 µM, first compound 0.316 µM
[34] = second compound 10 µM, first compound 1 µM
[35] = second compound 10 µM, first compound 3.16 µM
[36] = second compound 10 µM, first compound 10 µM
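Note: spheroids exposed to the agents for seven days before readout.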
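Throughout, for viability, T/C: percent viability relative to DMSO vehicle control wells taken as 100%.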

C=CCn1c(=O)c2cnc(Nc3ccc(N4CCN(C)CC4)cc3)nc2n1-c1cccc(C(C)(C)O)n1 + Cc1[nH]c2ccc(F)cc2c1-c1nc2c3cccnc3c3ncccc3c2[nH]1
IC50 (second compound 0.0316 µM): 1.83 µM
IC50 (second compound 0.1 µM): 1.83 µM
IC50 (second compound 0.316 µM): 1.84 µM
IC50 (second compound 1 µM): 1.85 µM
IC50 (second compound 3.16 µM): 1.76 µM
IC50 (second compound 10 µM): 1.76 µM
viability, T/C [1]: 101%
viability, T/C [2]: 96.7%
viability, T/C [3]: 112%
viability, T/C [4]: 99.7%
viability, T/C [5]: 4.85%
viability, T/C [6]: 1.9%
viability, T/C [7]: 99.5%
viability, T/C [8]: 98.9%
viability, T/C [9]: 110%
viability, T/C [10]: 99.9%
viability, T/C [11]: 4.92%
viability, T/C [12]: 2.17%
viability, T/C [13]: 97.5%
viability, T/C [14]: 103%
viability, T/C [15]: 111%
viability, T/C [16]: 98%
viability, T/C [17]: 7.35%
viability, T/C [18]: 1.74%
viability, T/C [19]: 95.7%
viability, T/C [20]: 98.3%
viability, T/C [21]: 111%
viability, T/C [22]: 100%
viability, T/C [23]: 6.22%
viability, T/C [24]: 2%
viability, T/C [25]: 102%
viability, T/C [26]: 109%
viability, T/C [27]: 109%
viability, T/C [28]: 92.9%
viability, T/C [29]: 5.37%
viability, T/C [30]: 2.62%
viability, T/C [31]: 106%
viability, T/C [32]: 107%
viability, T/C [33]: 109%
viability, T/C [34]: 93.5%
viability, T/C [35]: 4.68%
viability, T/C [36]: 2.33%

CC(C)(O)C1CCC(Nc2ccc3ncc(-c4cccc(C(F)(F)F)c4)n3n2)CC1 (stereo not drawn) + Cc1[nH]c2ccc(F)cc2c1-c1nc2c3cccnc3c3ncccc3c2[nH]1
IC50 (second compound 0.0316 µM): > 10 µM
IC50 (second compound 0.1 µM): 3.11 µM
IC50 (second compound 0.316 µM): 2.96 µM
IC50 (second compound 1 µM): 2.47 µM
IC50 (second compound 3.16 µM): 2.5 µM
IC50 (second compound 10 µM): 2.37 µM
viability, T/C [1]: 108%
viability, T/C [2]: 105%
viability, T/C [3]: 109%
viability, T/C [4]: 89%
viability, T/C [5]: 71.7%
viability, T/C [6]: 55.3%
viability, T/C [7]: 104%
viability, T/C [8]: 100%
viability, T/C [9]: 99.8%
viability, T/C [10]: 93.2%
viability, T/C [11]: 47.5%
viability, T/C [12]: 51.3%
viability, T/C [13]: 101%
viability, T/C [14]: 111%
viability, T/C [15]: 102%
viability, T/C [16]: 105%
viability, T/C [17]: 40.7%
viability, T/C [18]: 52.6%
viability, T/C [19]: 106%
viability, T/C [20]: 106%
viability, T/C [21]: 98.9%
viability, T/C [22]: 110%
viability, T/C [23]: 28.9%
viability, T/C [24]: 41%
viability, T/C [25]: 104%
viability, T/C [26]: 107%
viability, T/C [27]: 113%
viability, T/C [28]: 113%
viability, T/C [29]: 22.5%
viability, T/C [30]: 47.1%
viability, T/C [31]: 97.1%
viability, T/C [32]: 111%
viability, T/C [33]: 112%
viability, T/C [34]: 109%
viability, T/C [35]: 26.2%
viability, T/C [36]: 35.4%

COc1ncnc(C2CC2)c1-c1ncc2cnn(Cc3ccc(-c4nc(C(F)(F)F)cn4C(C)C)cc3)c2n1 + Cc1[nH]c2ccc(F)cc2c1-c1nc2c3cccnc3c3ncccc3c2[nH]1
IC50 (second compound 0.0316 µM): > 10 µM
IC50 (second compound 0.1 µM): > 10 µM
IC50 (second compound 0.316 µM): > 10 µM
IC50 (second compound 1 µM): > 10 µM
IC50 (second compound 3.16 µM): > 10 µM
IC50 (second compound 10 µM): > 10 µM
viability, T/C [1]: 106%
viability, T/C [2]: 99.2%
viability, T/C [3]: 104%
viability, T/C [4]: 99.7%
viability, T/C [5]: 104%
viability, T/C [6]: 107%
viability, T/C [7]: 106%
viability, T/C [8]: 105%
viability, T/C [9]: 104%
viability, T/C [10]: 99.6%
viability, T/C [11]: 100%
viability, T/C [12]: 107%
viability, T/C [13]: 101%
viability, T/C [14]: 99.8%
viability, T/C [15]: 107%
viability, T/C [16]: 100%
viability, T/C [17]: 102%
viability, T/C [18]: 96.5%
viability, T/C [19]: 98.2%
viability, T/C [20]: 105%
viability, T/C [21]: 107%
viability, T/C [22]: 104%
viability, T/C [23]: 108%
viability, T/C [24]: 110%
viability, T/C [25]: 107%
viability, T/C [26]: 106%
viability, T/C [27]: 108%
viability, T/C [28]: 108%
viability, T/C [29]: 109%
viability, T/C [30]: 110%
viability, T/C [31]: 107%
viability, T/C [32]: 104%
viability, T/C [33]: 109%
viability, T/C [34]: 104%
viability, T/C [35]: 111%
viability, T/C [36]: 111%

O=C(NO)c1cnc(N2CCN(S(=O)(=O)c3ccc4ccccc4c3)CC2)nc1 + Cc1[nH]c2ccc(F)cc2c1-c1nc2c3cccnc3c3ncccc3c2[nH]1
IC50 (second compound 0.0316 µM): 0.682 µM
IC50 (second compound 0.1 µM): 0.847 µM
IC50 (second compound 0.316 µM): 1.17 µM
IC50 (second compound 1 µM): 1.25 µM
IC50 (second compound 3.16 µM): 0.943 µM
IC50 (second compound 10 µM): 0.948 µM
viability, T/C [1]: 100%
viability, T/C [2]: 96.8%
viability, T/C [3]: 112%
viability, T/C [4]: 23.5%
viability, T/C [5]: 1.82%
viability, T/C [6]: 0.49%
viability, T/C [7]: 104%
viability, T/C [8]: 97.4%
viability, T/C [9]: 110%
viability, T/C [10]: 41%
viability, T/C [11]: 1.2%
viability, T/C [12]: 0.14%
viability, T/C [13]: 103%
viability, T/C [14]: 97.2%
viability, T/C [15]: 110%
viability, T/C [16]: 57.5%
viability, T/C [17]: 3.37%
viability, T/C [18]: 0.12%
viability, T/C [19]: 94.7%
viability, T/C [20]: 102%
viability, T/C [21]: 115%
viability, T/C [22]: 61.3%
viability, T/C [23]: 4.62%
viability, T/C [24]: 0.3%
viability, T/C [25]: 101%
viability, T/C [26]: 111%
viability, T/C [27]: 111%
viability, T/C [28]: 46.9%
viability, T/C [29]: 3.24%
viability, T/C [30]: 0.41%
viability, T/C [31]: 112%
viability, T/C [32]: 104%
viability, T/C [33]: 115%
viability, T/C [34]: 47.1%
viability, T/C [35]: 2.05%
viability, T/C [36]: 0.25%
